US20230357320A1, “HELICAL STAPLED PEPTIDES AND USES THEREOF” (FOG PHARMACEUTICALS, INC., priority 2020, published 2023)
Like-named read-outs stand apart in the source and are kept apart here. Starred links: 1 amine or outer side, 2 acyl side, 3 side chain; linkers in the order of their positions; H or OH if unused. Positions of bridges follow the written chain, without caps; N, C: chain ends. Non-standard residues stand in square brackets, D forms with d. Residues, ends and D or L forms follow the SMILES beside them. X1 = O=C([C@]1(CC=[*:3])CCCN1[*:1])[*:2]; Ala(cPr) = N[C@@H](CC1CC1)C(=O)O; S5 = C=CCCC[C@](C)(N)C(=O)O; Nle = CCCC[C@H](N)C(=O)O

What was measured:
ERβ LBD = molecular target: T1, ERβ LBD (Homo sapiens, UniProt Q92731); assay: Competition fluorescence polarization (FP) binding assay with FITC-ERL4 probe; conditions: read-out: EC50
T1 construct: pET28a+ vector containing ERβ LBD (residues from 261 to 500) along with an N-terminal His6-yBBr-TEV tag; His6 (N); yBBr (N); TEV cleavage site (N); made in house; host or cells: E. coli BL21(DE3) pLysS
Method: In addition to the PAMPA assay, to study the affinity of the first-generation ProLock™ stapled peptides to the Estrogen receptor p ligand-binding domain (ERβ LBD), a fluorescence polarization (FP) binding assay in competition format was used in the presence of the endogenous ERβ LBD ligand estradiol. Competition Fluorescence Polarization (FP) assay was performed on the peptides to determine their half-maximal effective concentration (EC50). To do this, FITC labeled ERL4 peptide (FITC-βAla-His-Pro-Leu-Leu-Nle-Arg-Leu-Leu-Leu-Ser-Pro-CONH2) was synthesized to be used as a fluorescence probe based on existing literature (Fuchs et al., Journal of the American Chemical Society 2013, 135 (11), 4364-4371). Direct FP was performed in black 384-well plates (Corning). The final volume of each assay well was 40 μL with constant concentration of FITC labeled ERL4 peptide (10 nM) and variable concentrations of ERβ LBD protein.
ERβ LBD expression and purification was performed as follows. BL21(DE3) pLysS E. coli cells were transformed with a pET28a+ vector containing ERβ LBD (residues from 261 to 500) along with an N-terminal His6-yBBr-TEV tag. An overnight culture in 10 mL of TB media containing 50 μg/mL kanamycin was prepared from a single bacterial colony. The overnight culture was subsequently added to 1 liter of autoclaved TB media containing 50 μg/mL kanamycin and shaken at 37° C. until an OD of 0.6-0.8 was reached. IPTG was added to the culture and left shaking for 6 hours. Bacterial culture was pelleted and resuspended in lysis buffer. Resuspended bacterial culture was incubated at 0° C. for 10 minutes before sonication at 65% amplitude with 10-sec cycles using a Branson Sonifier. The lysate was then cleared by centrifugation at 8000×g for 20 min. […] The expected molecular weight of the ERβ LBD protein is 30.8 KDa, which molecular weight was confirmed by SDS PAGE analysis. Purified ERβ LBD was concentrated to 90 μM and was stored at −80° C. buffer.
Competition FP assays were also employed. These were performed in black 384-well plates (Corning). The final volume of each assay well was 80 μL containing constant concentrations of estradiol (1 μM) and FITC labeled ERL4 (10 nM). The ERβ LBD concentration was held constant (200 nM) while varying the concentration of ProLock stapled peptides (3-fold dilution from 10 μM). Upon addition of samples to each well, the plate was centrifuged for 10 seconds at 3000 rpm and incubated at 4° C. for 1 hour. FP measurements were performed at room temperature with excitation and emission wavelengths at 485 and 535 nm using a Clariostar microplate reader (BMG Labtech). Each plate had high and low polarization samples, which are used to normalize the assay data. The competition FP results were analyzed by Prism 7 (GraphPad). The non-linear regression analysis of the data was used to determine the half-maximal effective concentration (EC50) of ProLock stapled peptides. […] The normalized FP values shown in FIG. 6 are mean±S.E.M of at least four independent replicates.

[1] = for % Retention: PAMPA
in vitro = assay: in vitro; set-up: dose or concentration left out as unconfirmed; conditions: PAMPA, pH 7.4, PAMPA Pe
[2] = CHI Log D measurement (chromatographic hydrophobicity index); conditions: pH 7.4
[3] = Table 4, binding to ER LBD, estradiol 1 μM, FITC-ERL4 10 nM, ERβ LBD 200 nM, mean ± S.E.M, at least four replicates
[4] = Table 2, binding to ER LBD, estradiol 1 μM, FITC-ERL4 10 nM, ERβ LBD 200 nM, mean ± S.E.M, at least four replicates
[5] = reverse-phase HPLC, Phenomenex Gemini C-18 column
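Throughout, for % Retention: Phospholipid-membrane PAMPA, donor and acceptor in DPBS pH 7.4 with 5% DMSO, 37 °C for 5 h, compound in each well quantified by reverse-phase HPLC-MS.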
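Throughout, for PAMPA Pe (text): Phospholipid-membrane PAMPA, donor and acceptor in DPBS pH 7.4 with 5% DMSO, 37 °C for 5 h, compound in each well quantified by reverse-phase HPLC-MS.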
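Throughout, for PAMPA Pe: Phospholipid-membrane PAMPA, donor and acceptor in DPBS pH 7.4 with 5% DMSO, 37 °C for 5 h, compound in each well quantified by reverse-phase HPLC-MS.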
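Throughout, for Papp: Phospholipid-membrane PAMPA, donor and acceptor in DPBS pH 7.4 with 5% DMSO, 37 °C for 5 h, compound in each well quantified by reverse-phase HPLC-MS.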

SMILES | EC50 (ERβ LBD; [3]) | % Retention [1] | Papp at 5 h (in vitro) | chromatographic logD [2] | PAMPA Pe (text) [1] | EC50 (ERβ LBD; [4]) | chromatographic logD [2, 5] | EC50 (ERβ LBD; binding towards the ERβ LBD) | PAMPA Pe [1]
CNC(=O)[C@H](CC(=O)O)NC(=O)[C@H](CC(C)C)NC(=O)[C@H](CC(C)C)NC(=O)[C@H](Cc1ccc(O)cc1)NC(=O)[C@]1(C)CCCC=CC[C@]2(CCCN2C(C)=O)C(=O)N[C@@H](CCCCN)C(=O)N[C@@H](CC(C)C)C(=O)N1 (single isomer, unassigned) [PLL5-6, Ac-PL3-Lys-Leu-S5-Tyr-Leu-Leu-Asp-NHMe] | > 10 µM | 105 ± 5% | 1.5 ± 0.2 ×10⁻⁶ cm/s | 1.2 |  |  |  |  | 
CNC(=O)[C@H](CC(=O)O)NC(=O)[C@H](CC(=O)O)NC(=O)[C@H](CC(C)C)NC(=O)[C@H](CC(C)C)NC(=O)[C@H](Cc1ccc(O)cc1)NC(=O)[C@]1(C)CCCC=CC[C@]2(CCCN2C(C)=O)C(=O)N[C@@H]([C@@H](C)O)C(=O)N[C@@H](CC(C)C)C(=O)N1 (single isomer, unassigned) [PLL7-1, Ac-PL3-Thr-Leu-S5-Tyr-Leu-Leu-Asp-Asp-NHMe] | > 10 µM | 114 ± 3% | 2.1 ± 0.4 ×10⁻⁶ cm/s | 1 | 2.1e-06 cm/s |  |  |  | 
CCCC[C@H](NC(=O)[C@]1(C)CCCC=CC[C@]2(CCCN2C(C)=O)C(=O)N[C@@H](CC(C)C)C(=O)N[C@@H](CCCNC(=N)N)C(=O)N1)C(=O)N[C@@H](CC(C)C)C(=O)N[C@@H](C)C(=O)N[C@@H](Cc1ccc(O)cc1)C(=O)NC [PLL4-12, Ac-PL3-Leu-Arg-S5-Nle-Leu-Ala-Tyr-NHMe] (Ac-[X1]LR[S5][Nle]LAY-NHMe; staple 1-4) |  | 42 ± 2% | ≤ 0.1 ×10⁻⁶ cm/s |  |  | 7.5 ± 0.4 µM | 2.7 |  | 
CC[C@H](C)[C@@H]1NC(=O)[C@]2(CC=CCCC[C@@](C)(C(=O)N[C@@H](Cc3ccc(O)cc3)C(=O)N[C@@H](CC(C)C)C(=O)N[C@@H](CC(C)C)C(=O)N[C@@H](CC(=O)O)C(=O)NC)NC(=O)[C@H](CC(C)C)NC1=O)CCCN2C(C)=O [PLL5-4, Ac-PL3-Ile-Leu-S5-Tyr-Leu-Leu-Asp-NHMe] (Ac-[X1]IL[S5]YLLD-NHMe; staple 1-4) | 1.3 ± 0.1 µM | 100 ± 1% | 0.3 ± 0.1 ×10⁻⁶ cm/s |  |  |  | 2.4 |  | 
CNC(=O)[C@@H](NC(=O)[C@H](CC(C)C)NC(=O)[C@H](CC(C)C)NC(=O)[C@H](CC1CC1)NC(=O)[C@]1(C)CCCC=CC[C@]2(CCCN2C(C)=O)C(=O)N[C@@H]([C@@H](C)O)C(=O)N[C@@H](CC(C)C)C(=O)N1)[C@@H](C)O [PLL7-23, Ac-PL3-Thr-Leu-S5-Cpa-Leu-Leu-Thr-NHMe] (Ac-[X1]TL[S5][Ala(cPr)]LLT-NHMe; staple 1-4) | 2.4 ± 0.1 µM | 92 ± 2% | < 0.1 ×10⁻⁶ cm/s |  |  |  | 3.2 |  | 
CNC(=O)[C@H](Cc1ccc(O)cc1)NC(=O)[C@H](CC(C)C)NC(=O)[C@H](CC(C)C)NC(=O)[C@H](Cc1c[nH]cn1)NC(=O)[C@H](CCCNC(=N)N)NC(=O)[C@]1(C)CCCC=CC[C@]2(CCCN2C(C)=O)C(=O)N[C@@H](CC(C)C)C(=O)N[C@@H](CC(C)C)C(=O)N1 [PLL4-2, Ac-PL3-Leu-Leu-S5-Arg-His-Leu-Leu-Tyr-NHMe] (Ac-[X1]LL[S5]RHLLY-NHMe; staple 1-4) |  | 43 ± 2% | ≤ 0.1 ×10⁻⁶ cm/s |  |  |  | 2.7 | 0.4 µM | 
CNC(=O)[C@H](CC(=O)O)NC(=O)[C@H](CCC(N)=O)NC(=O)[C@H](CC(C)C)NC(=O)[C@H](CC(C)C)NC(=O)[C@H](Cc1ccc(O)cc1)NC(=O)[C@]1(C)CCCC=CC[C@]2(CCCN2C(C)=O)C(=O)N[C@@H](C)C(=O)N[C@@H](CC(C)C)C(=O)N1 (single isomer, unassigned) [PLL7-8, Ac-PL3-Ala-Leu-S5-Tyr-Leu-Leu-Gln-Asp-NHMe] | > 10 µM | 107 ± 3% | 1.4 ± 0.3 ×10⁻⁶ cm/s | 1.7 |  |  |  |  | 
CNC(=O)[C@H](CC(N)=O)NC(=O)[C@H](CC(C)C)NC(=O)[C@H](CC(C)C)NC(=O)[C@H](Cc1c[nH]cn1)NC(=O)[C@]1(C)CCCC=CC[C@]2(CCCN2C(C)=O)C(=O)N[C@@H](C)C(=O)N[C@@H](CC(C)C)C(=O)N1 (single isomer, unassigned) [PLL7-20, Ac-PL3-Ala-Leu-S5-His-Leu-Leu-Asn-NHMe] | > 10 µM | 104 ± 2% | 1.3 ± 0.1 ×10⁻⁶ cm/s | 2.1 |  |  |  |  | 1.3 ± 0.1 (×10^−6) cm/sec
CNC(=O)[C@H](CC(=O)O)NC(=O)[C@H](CC(C)C)NC(=O)[C@H](CC(C)C)NC(=O)[C@H](CCCNC(=N)N)NC(=O)[C@]1(C)CCCC=CC[C@]2(CCCN2C(C)=O)C(=O)N[C@@H](CC(C)C)C(=O)N[C@@H](CC(C)C)C(=O)N1 [PLL5-8, Ac-PL3-Leu-Leu-S5-Arg-Leu-Leu-Asp-NHMe] (Ac-[X1]LL[S5]RLLD-NHMe; staple 1-4) | 7.9 ± 0.4 µM | 104 ± 3% | 0.9 ± 0.2 ×10⁻⁶ cm/s |  |  |  | 2.1 |  | 
CNC(=O)[C@H](CC(=O)O)NC(=O)[C@H](CC(C)C)NC(=O)[C@H](CC(C)C)NC(=O)[C@H](Cc1ccc(O)cc1)NC(=O)[C@]1(C)CCCC=CC[C@]2(CCCN2C(C)=O)C(=O)N[C@@H](CC(C)C)C(=O)N[C@@H](CC(C)C)C(=O)N1 [PLL4-10, Ac-PL3-Leu-Leu-S5-Tyr-Leu-Leu-Asp-NHMe] (Ac-[X1]LL[S5]YLLD-NHMe; staple 1-4) |  | 63 ± 4% | 0.6 ± 0.1 ×10⁻⁶ cm/s |  | 0.3-0.7 ×10^−6 cm/sec |  | 2.4 | 1.5 µM | 0.6 ± 0.1 (×10^−6) cm/sec
CNC(=O)[C@H](Cc1ccc(O)cc1)NC(=O)[C@H](CCC(N)=O)NC(=O)[C@H](CC(C)C)NC(=O)[C@H](CC(C)C)NC(=O)[C@]1(C)CCCC=CC[C@]2(CCCN2C(C)=O)C(=O)N[C@@H](CC(C)C)C(=O)N[C@@H](Cc2c[nH]cn2)C(=O)N1 (single isomer, unassigned) [PLL4-7, Ac-PL3-Leu-His-S5-Leu-Leu-Gln-Tyr-NHMe] |  | 46 ± 3% | 0.3 ± 0.1 ×10⁻⁶ cm/s | 2.5 | 0.3-0.7 ×10^−6 cm/sec | > 10 µM |  |  | 
CNC(=O)[C@H](CC(=O)O)NC(=O)[C@H](CC(C)C)NC(=O)[C@H](CC(C)C)NC(=O)[C@H](Cc1ccc(O)cc1)NC(=O)[C@]1(C)CCCC=CC[C@]2(CCCN2C(C)=O)C(=O)N[C@@H]([C@@H](C)O)C(=O)N[C@@H](CC(C)C)C(=O)N1 (single isomer, unassigned) [PLL5-5, Ac-PL3-Thr-Leu-S5-Tyr-Leu-Leu-Asp-NHMe] | > 10 µM | 101 ± 5% | 1.4 ± 0.2 ×10⁻⁶ cm/s | 1.4 |  |  |  |  | 
CNC(=O)[C@H](CC(=O)O)NC(=O)[C@H](CC(C)C)NC(=O)[C@H](CC(C)C)NC(=O)[C@H](Cc1ccc(O)cc1)NC(=O)[C@H](CCCNC(=N)N)NC(=O)[C@]1(C)CCCC=CC[C@]2(CCCN2C(C)=O)C(=O)N[C@@H](C)C(=O)N[C@@H](CC(C)C)C(=O)N1 [PLL4-4, Ac-PL3-Ala-Leu-S5-Arg-Tyr-Leu-Leu-Asp-NHMe] (Ac-[X1]AL[S5]RYLLD-NHMe; staple 1-4) |  | 71 ± 2% | 0.5 ± 0.1 ×10⁻⁶ cm/s |  | 0.3-0.7 ×10^−6 cm/sec | 7.9 ± 0.4 µM | 2.3 |  | 
